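Cultured in 96-well plates, cells were exposed to test compound for 48 hours across five concentrations. TGI is the concentration that stops growth completely.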
How the values were obtained:
Assay in all cases: NCI anticancer screen, dose series, 48 h
786-0 renal = system: 786-0 renal
A498 renal = system: A498 renal
A549 NSCLC = system: A549 NSCLC
ACHN renal = system: ACHN renal
BT-549 breast = system: BT-549 breast
CAKI-1 renal = system: CAKI-1 renal
CCRF-CEM leukemia = system: CCRF-CEM leukemia
COLO 205 colon = system: COLO 205 colon
DU-145 prostate = system: DU-145 prostate
EKVX NSCLC = system: EKVX NSCLC
HCC-2998 colon = system: HCC-2998 colon
HCT-116 colon = system: HCT-116 colon
HCT-15 colon = system: HCT-15 colon
HL-60(TB) leukemia = system: HL-60(TB) leukemia
HOP-62 NSCLC = system: HOP-62 NSCLC
HOP-92 NSCLC = system: HOP-92 NSCLC
HS 578T breast = system: HS 578T breast
HT29 colon = system: HT29 colon
IGROV1 ovarian = system: IGROV1 ovarian
K-562 leukemia = system: K-562 leukemia
KM12 colon = system: KM12 colon
LOX IMVI melanoma = system: LOX IMVI melanoma
M14 melanoma = system: M14 melanoma
MALME-3M melanoma = system: MALME-3M melanoma
MCF7 breast = system: MCF7 breast
MDA-MB-231 breast = system: MDA-MB-231 breast
MDA-MB-435 = system: MDA-MB-435
MDA-N = system: MDA-N
MOLT-4 leukemia = system: MOLT-4 leukemia
NCI-H226 lung = system: NCI-H226 lung
NCI-H23 lung = system: NCI-H23 lung
NCI-H460 lung = system: NCI-H460 lung
NCI-H522 lung = system: NCI-H522 lung
NCI/ADR-RES ovarian = system: NCI/ADR-RES ovarian
OVCAR-3 ovarian = system: OVCAR-3 ovarian
OVCAR-4 ovarian = system: OVCAR-4 ovarian
OVCAR-5 ovarian = system: OVCAR-5 ovarian
OVCAR-8 ovarian = system: OVCAR-8 ovarian
PC-3 prostate = system: PC-3 prostate
RPMI-8226 leukemia = system: RPMI-8226 leukemia
RXF 393 renal = system: RXF 393 renal
SF-268 CNS = system: SF-268 CNS
SF-295 CNS = system: SF-295 CNS
SF-539 CNS = system: SF-539 CNS
SK-MEL-2 melanoma = system: SK-MEL-2 melanoma
SK-MEL-28 melanoma = system: SK-MEL-28 melanoma
SK-MEL-5 melanoma = system: SK-MEL-5 melanoma
SN12C renal = system: SN12C renal
SNB-19 CNS = system: SNB-19 CNS
SNB-75 CNS = system: SNB-75 CNS
SR leukemia = system: SR leukemia
SW-620 colon = system: SW-620 colon
T-47D breast = system: T-47D breast
U251 CNS = system: U251 CNS
UACC-257 melanoma = system: UACC-257 melanoma
UACC-62 melanoma = system: UACC-62 melanoma
UO-31 renal = system: UO-31 renal
TK-10 renal = system: TK-10 renal
SK-OV-3 ovarian = system: SK-OV-3 ovarian

`CCc1c(-c2ccc(OC)cc2)c(=O)oc2cc(O)ccc12` was tested, and the TGI (786-0 renal) was over 100 µM, the TGI (A498 renal) was 98.7 µM and the TGI (A549 NSCLC) was over 100 µM. The TGI (ACHN renal) was over 100 µM, the TGI (BT-549 breast) was 75.9 µM and the TGI (CAKI-1 renal) was over 100 µM. For the same compound, the TGI (CCRF-CEM leukemia) was over 100 µM, the TGI (COLO 205 colon) was 97.1 µM and the TGI (DU-145 prostate) was over 100 µM. For the same compound, the TGI (EKVX NSCLC) was over 100 µM, the TGI (HCC-2998 colon) was over 100 µM and the TGI (HCT-116 colon) was over 100 µM. The TGI (HCT-15 colon) was over 100 µM, the TGI (HL-60(TB) leukemia) was 32.6 µM and the TGI (HOP-62 NSCLC) was over 100 µM. It also gave a TGI (HOP-92 NSCLC) of over 100 µM, a TGI (HS 578T breast) of over 100 µM and a TGI (HT29 colon) of over 100 µM. The TGI (IGROV1 ovarian) was over 100 µM, the TGI (K-562 leukemia) was over 100 µM and the TGI (KM12 colon) was over 100 µM. For the same compound, the TGI (LOX IMVI melanoma) was over 100 µM, the TGI (M14 melanoma) was 56.8 µM and the TGI (MALME-3M melanoma) was 79.5 µM. The TGI (MCF7 breast) was over 100 µM, the TGI (MDA-MB-231 breast) was over 100 µM and the TGI (MDA-MB-435) was over 100 µM. It also gave a TGI (MDA-N) of over 100 µM, a TGI (MOLT-4 leukemia) of 57.9 µM and a TGI (NCI-H226 lung) of over 100 µM. The TGI (NCI-H23 lung) was over 100 µM, the TGI (NCI-H460 lung) was over 100 µM and the TGI (NCI-H522 lung) was over 100 µM. The TGI (NCI/ADR-RES ovarian) was over 100 µM, the TGI (OVCAR-3 ovarian) was 87.5 µM and the TGI (OVCAR-4 ovarian) was over 100 µM. The TGI (OVCAR-5 ovarian) was over 100 µM, the TGI (OVCAR-8 ovarian) was over 100 µM and the TGI (PC-3 prostate) was 83.3 µM. It also gave a TGI (RPMI-8226 leukemia) of 47.6 µM, a TGI (RXF 393 renal) of over 100 µM and a TGI (SF-268 CNS) of over 100 µM. The TGI (SF-295 CNS) was over 100 µM, the TGI (SF-539 CNS) was over 100 µM and the TGI (SK-MEL-2 melanoma) was over 100 µM. It also gave a TGI (SK-MEL-28 melanoma) of over 100 µM, a TGI (SK-MEL-5 melanoma) of 33.8 µM and a TGI (SN12C renal) of over 100 µM. The TGI (SNB-19 CNS) was over 100 µM, the TGI (SNB-75 CNS) was over 100 µM and the TGI (SR leukemia) was 58.4 µM. For the same compound, the TGI (SW-620 colon) was over 100 µM, the TGI (T-47D breast) was over 100 µM and the TGI (U251 CNS) was over 100 µM. For the same compound, the TGI (UACC-257 melanoma) was 61.3 µM, the TGI (UACC-62 melanoma) was over 100 µM and the TGI (UO-31 renal) was 68.4 µM.

In the case of `COc1ccc2c(c1)[C@@H]1c3cc(OC)c(OC)cc3CCN1CCC2`, the TGI (786-0 renal) is reported as over 100 µM, the TGI (A498 renal) is reported as over 100 µM and the TGI (A549 NSCLC) is reported as over 100 µM. For the same compound, the TGI (ACHN renal) was over 100 µM, the TGI (BT-549 breast) was over 100 µM and the TGI (CAKI-1 renal) was over 100 µM. The TGI (CCRF-CEM leukemia) was over 100 µM, the TGI (COLO 205 colon) was over 100 µM and the TGI (DU-145 prostate) was over 100 µM. For the same compound, the TGI (EKVX NSCLC) was over 100 µM, the TGI (HCC-2998 colon) was over 100 µM and the TGI (HCT-116 colon) was over 100 µM. For the same compound, the TGI (HCT-15 colon) was over 100 µM, the TGI (HL-60(TB) leukemia) was over 100 µM and the TGI (HOP-62 NSCLC) was over 100 µM. For the same compound, the TGI (HOP-92 NSCLC) was over 100 µM, the TGI (HS 578T breast) was over 100 µM and the TGI (HT29 colon) was over 100 µM. For the same compound, the TGI (IGROV1 ovarian) was over 100 µM, the TGI (K-562 leukemia) was over 100 µM and the TGI (KM12 colon) was over 100 µM. It also gave a TGI (LOX IMVI melanoma) of over 100 µM, a TGI (M14 melanoma) of over 100 µM and a TGI (MALME-3M melanoma) of over 100 µM. It also gave a TGI (MCF7 breast) of over 100 µM, a TGI (MDA-MB-231 breast) of over 100 µM and a TGI (MDA-MB-435) of over 100 µM. The TGI (MDA-N) was over 100 µM, the TGI (MOLT-4 leukemia) was over 100 µM and the TGI (NCI-H23 lung) was over 100 µM. For the same compound, the TGI (NCI-H460 lung) was over 100 µM, the TGI (NCI-H522 lung) was over 100 µM and the TGI (NCI/ADR-RES ovarian) was over 100 µM. It also gave a TGI (OVCAR-3 ovarian) of over 100 µM, a TGI (OVCAR-4 ovarian) of over 100 µM and a TGI (OVCAR-5 ovarian) of over 100 µM. It also gave a TGI (OVCAR-8 ovarian) of over 100 µM, a TGI (PC-3 prostate) of over 100 µM and a TGI (RPMI-8226 leukemia) of over 100 µM. For the same compound, the TGI (RXF 393 renal) was over 100 µM, the TGI (SF-268 CNS) was over 100 µM and the TGI (SF-295 CNS) was over 100 µM. For the same compound, the TGI (SF-539 CNS) was over 100 µM, the TGI (SK-MEL-2 melanoma) was over 100 µM and the TGI (SK-MEL-28 melanoma) was over 100 µM. It also gave a TGI (SK-MEL-5 melanoma) of over 100 µM, a TGI (SN12C renal) of over 100 µM and a TGI (SNB-19 CNS) of over 100 µM. For the same compound, the TGI (SNB-75 CNS) was over 100 µM, the TGI (SR leukemia) was over 100 µM and the TGI (SW-620 colon) was over 100 µM. It also gave a TGI (T-47D breast) of over 100 µM, a TGI (TK-10 renal) of over 100 µM and a TGI (U251 CNS) of over 100 µM. For the same compound, the TGI (UACC-257 melanoma) was over 100 µM, the TGI (UACC-62 melanoma) was over 100 µM and the TGI (UO-31 renal) was over 100 µM.

Compound `NCCCCCCn1c(-c2ccc(Br)cc2)csc1=Nc1ccccc1` has a TGI (786-0 renal) of 21.9 µM, a TGI (A498 renal) of 33.6 µM and a TGI (A549 NSCLC) of 25 µM. The TGI (ACHN renal) was 27.7 µM, the TGI (BT-549 breast) was 27.4 µM and the TGI (CAKI-1 renal) was 28.3 µM. The TGI (CCRF-CEM leukemia) was 21.6 µM, the TGI (COLO 205 colon) was 3.18 µM and the TGI (DU-145 prostate) was 26.3 µM. For the same compound, the TGI (EKVX NSCLC) was 26.7 µM, the TGI (HCC-2998 colon) was 12.8 µM and the TGI (HCT-116 colon) was 15.1 µM. For the same compound, the TGI (HCT-15 colon) was 22.1 µM, the TGI (HOP-62 NSCLC) was 32.4 µM and the TGI (HOP-92 NSCLC) was 32.4 µM. The TGI (HS 578T breast) was 35.6 µM, the TGI (HT29 colon) was 19.9 µM and the TGI (K-562 leukemia) was 4.84 µM. The TGI (KM12 colon) was 19.7 µM, the TGI (LOX IMVI melanoma) was 13.1 µM and the TGI (M14 melanoma) was 3.17 µM. It also gave a TGI (MALME-3M melanoma) of 25.6 µM, a TGI (MCF7 breast) of 17.4 µM and a TGI (MDA-MB-231 breast) of 30.3 µM. For the same compound, the TGI (MDA-MB-435) was 22.6 µM, the TGI (MDA-N) was 19.7 µM and the TGI (MOLT-4 leukemia) was 14.8 µM. The TGI (NCI-H226 lung) was 39.5 µM, the TGI (NCI-H23 lung) was 29.8 µM and the TGI (NCI-H460 lung) was 27.1 µM. It also gave a TGI (NCI-H522 lung) of 24 µM, a TGI (NCI/ADR-RES ovarian) of 28.8 µM and a TGI (OVCAR-3 ovarian) of 23.7 µM. For the same compound, the TGI (OVCAR-4 ovarian) was 25.9 µM, the TGI (OVCAR-5 ovarian) was 24.6 µM and the TGI (OVCAR-8 ovarian) was 26.2 µM. For the same compound, the TGI (PC-3 prostate) was 18.3 µM, the TGI (RPMI-8226 leukemia) was 16.2 µM and the TGI (RXF 393 renal) was 26.2 µM. The TGI (SF-268 CNS) was 31.3 µM, the TGI (SF-295 CNS) was 29.5 µM and the TGI (SF-539 CNS) was 30.6 µM. It also gave a TGI (SK-MEL-2 melanoma) of 33.4 µM, a TGI (SK-MEL-28 melanoma) of 27.2 µM and a TGI (SK-MEL-5 melanoma) of 21.7 µM. The TGI (SK-OV-3 ovarian) was 31.1 µM, the TGI (SN12C renal) was 26.5 µM and the TGI (SNB-19 CNS) was 29 µM. For the same compound, the TGI (SNB-75 CNS) was 24.2 µM, the TGI (SR leukemia) was 11.3 µM and the TGI (SW-620 colon) was 17.6 µM. It also gave a TGI (T-47D breast) of 18.3 µM, a TGI (TK-10 renal) of 26.7 µM and a TGI (U251 CNS) of 20.9 µM. The TGI (UACC-257 melanoma) was 29.6 µM, the TGI (UACC-62 melanoma) was 32.1 µM and the TGI (UO-31 renal) was 22.1 µM.

Source: PubChem BioAssay (NCI)
